The record followed here is publication PMC10336775 (Proteins, 2022).

This test has as its target afRubisco (Archaeoglobus fulgidus, UniProt O28635). Briefly: coupled NADH assay of 3PGA formed. It is filed as biochemical. The following applies: 2 mM RuBp, 10 mM NaHCO3, 20 mM MgCl2, pH 8.2, 65 C; carboxylase activity.

Chain of afRubisco (O28635 whole entry): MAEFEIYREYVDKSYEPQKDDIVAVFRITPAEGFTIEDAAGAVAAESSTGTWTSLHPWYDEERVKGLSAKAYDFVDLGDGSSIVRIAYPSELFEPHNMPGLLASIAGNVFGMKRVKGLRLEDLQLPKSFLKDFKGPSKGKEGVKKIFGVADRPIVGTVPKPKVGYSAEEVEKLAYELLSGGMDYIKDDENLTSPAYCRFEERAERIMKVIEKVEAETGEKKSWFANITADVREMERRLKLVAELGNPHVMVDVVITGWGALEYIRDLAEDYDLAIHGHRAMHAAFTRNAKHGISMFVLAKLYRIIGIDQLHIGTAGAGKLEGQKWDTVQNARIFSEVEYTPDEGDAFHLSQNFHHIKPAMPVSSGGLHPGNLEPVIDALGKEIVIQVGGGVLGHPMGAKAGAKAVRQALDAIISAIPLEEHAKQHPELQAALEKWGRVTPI

With `O=C(COP(=O)(O)O)[C@H](O)[C@H](O)COP(=O)(O)O` [RuBp], the “coupled NADH assay of 3PGA formed (340 nm)” value is listed as “Activated afRubisco has very low carboxylase activity at room temperature but has much higher”.
